{"source": "patent US10703775B2", "about": "“Method of purifying antifungal compounds and exopolysaccharides from a microbial cell culture” (Bayer CropScience LP, priority 2016, dated 2020)", "system": "fungal pathogen", "assay": "Control treatments with processing aids alone on young plants inoculated with fungal pathogen", "assay_type": "in vivo", "details": "applied alone at final rates similar to those in the pellet fractions; compared with UTC plants", "from_the_text": "GEROPON® (SDOS) and C12EO25 were also each applied to young plants at final rates similar to those in the pellet fractions. The young plants were later inoculated with fungal pathogen and the each plant was scored for percent control of the pathogen relative to the UTC plants.", "data": [{"substance": "polyoxyethylene (25) dodecyl ether [C12EO25]", "values": [{"measurement": "inherent antifungal activity", "value": "no inherent antifungal activity"}]}]}
